The record followed here is patent US4923853A, “Process for enhancing the activity of plant protecting agents by using cyclodextrin” (Chinoin Gyogyszer Es Vegyeszeti Termekek Gyara R.T., priority 1985, dated 1990).

What all share (format): cell-based
One assay has as its system Sclerotinia sclerotiorum. The experiment in a line: Fungistatical effect of β-cyclodextrin (agar, colony diameter). Here is the method: (§1) The fungistatical activity of cyclodextrins has never been disclosed in prior art.
(§2) Agar nutrient media comprising 0.1-0.2 -0.5-1.0-2.0-5.0-10.0-20.0-100.0- 200.0-400.0-800.0-1200.0-1500.0-2000.0-3000.0 μg β-cyclodextrin/ml, respectively, are prepared in Petri-dishes. Mycelium discs are cut out from surface cultures of three test fungi and are placed onto the agar nutrient media in the Petri-dishes. Incubation is carried out in a thermostate whereupon the increase of the diameter of the colonies is determined and compared to that of the control. The morphology of the colonies and the diffusion of the dye-substance produced by the fungi into the nutrient medium are evaluated as well.
(§3) The fungistatical effect of cyclodextrin manifests itself in the changed morphology, structure and color of the colonies and in the amount of the dyestuff penetrated into the nutrient medium. However at higher dose range the effect of cyclodextrin is already of a quantitative nature, thus the decrease of the diameter of the colonies can be measured and the amount of the biomass formed is reduced to a rate which can be evaluated (Table 1).

A further assay has as its system Alternaria tenuis. Described as above. The following applies: Alternaria alternata. The protocol:
as §1, §2, §3

For the next assay, the system named is Rhizoctonia solani. The assay is described as above. The protocol: as §1, §2, §3
Another assay concerns three test fungi. The experiment in a line: Fungistatical effect of β-cyclodextrin, morphology and surfacial cultures. The note with it: surfacial cultures. Here is the method: as §2, §3

The structures appear in SMILES notation.

What is called inhibition is the drop in the measured response relative to a control, in per cent. A low value points to a weak effect. In the case of `OC[C@H]1O[C@@H]2O[C@H]3[C@H](O)[C@@H](O)[C@@H](O[C@H]4[C@H](O)[C@@H](O)[C@@H](O[C@H]5[C@H](O)[C@@H](O)[C@@H](O[C@H]6[C@H](O)[C@@H](O)[C@@H](O[C@H]7[C@H](O)[C@@H](O)[C@@H](O[C@H]8[C@H](O)[C@@H](O)[C@@H](O[C@H]1[C@H](O)[C@H]2O)O[C@@H]8CO)O[C@@H]7CO)O[C@@H]6CO)O[C@@H]5CO)O[C@@H]4CO)O[C@@H]3CO` [β-cyclodextrin], the inhibition at 200 µg/mL turned out to be 12% with Sclerotinia sclerotiorum (β-cyclodextrin 200 μg/ml), 7% with Alternaria tenuis (β-cyclodextrin 200 μg/ml) and 3% in the assay with Rhizoctonia solani (β-cyclodextrin 200 μg/ml). The inhibition at 400 µg/mL with Sclerotinia sclerotiorum (β-cyclodextrin 400 μg/ml) is 12%; in the assay with Alternaria tenuis (β-cyclodextrin 400 μg/ml) it was 10%; in the assay on Rhizoctonia solani (β-cyclodextrin 400 μg/ml), 6%. In addition, the inhibition at 1500 µg/mL was found to be 14% with Sclerotinia sclerotiorum (β-cyclodextrin 1500 μg/ml), 12% in the assay with Alternaria tenuis (β-cyclodextrin 1500 μg/ml) and 17% in the assay on Rhizoctonia solani (β-cyclodextrin 1500 μg/ml). The values for the inhibition at 3000 µg/mL with Sclerotinia sclerotiorum (β-cyclodextrin 3000 μg/ml), in the assay with Alternaria tenuis (β-cyclodextrin 3000 μg/ml) and with Rhizoctonia solani (β-cyclodextrin 3000 μg/ml) were 16%, 14% and 19%, respectively. Moreover, the “formation of the propagative organs” value in the assay with three test fungi is on record as “inhibits the formation of the propagative organs”.
